The test system of one assay is Capan1 cells. The experiment in a line: Cell Titer-Glo cell viability assay, Capan1. To be noted: Homo sapiens, CAPAN-1, 120 h; Pancreatic cell line Capan1; 5 days compound incubation; 2000 cells/well. Type of assay: cell-based. The protocol: (§1) The Cell Titer-Glo® assay (Promega) was used to measure cell viability. Cells were plated into 96-well black walled tissue culture plates in complete growth media. The plates were then incubated under standard growth conditions of 37° C. and 5% CO2 until the cells had attached to the plates (3-6 hours), then compounds were added to the cells. Compounds were serially diluted in DMSO using 3-fold dilutions and then diluted in complete media before being added to the cells (final DMSO concentration on cells was 0.1-0.2%).
(§2) After compound incubation, the cell plates were equilibrated to room temperature, culture media was removed, and 200 uL of Cell Titer-Glo® reagent mix was added to each well (1:1 mixture of Cell Titer-Glo® reagent and complete growth media, equilibrated to room temperature). The plates were shaken for 5-10 minutes, then sealed and luminescence was measured (using Trilux plate reader, Perkin Elmer).
(§3) Analysis of data was done by subtracting the background luminescence value from each data point, then determining the percent inhibition of total growth (as determined by the values for DMSO-treated wells).
(§4) To determine the EC50 for each compound, the data were fit using the Levenburg Marquardt algorithm, represented in the XLfit software as y=A+((B−A)/(1+((C/x)̂D))), the four parameter dose response model 205, where A is the minimum Y value, B is the maximum Y value, C is the Log IC50 and D is the slope.

The next assay deals with SU86.86 cells. The experiment in a line: Cell Titer-Glo cell viability assay, SU86.86. Type of assay: cell-based. To be noted: Homo sapiens, SU.86.86, 120 h; Pancreatic cell line SU86.86; 5 days compound incubation; 1000 cells/well. The protocol:
as §1, §2, §3, §4
Background: Cellular ATP, detected with luciferase, serves as a proxy for viable cell number.

For the next assay, the system named is PC3MM cells. The experiment in a line: Cell Titer-Glo cell viability assay, PC3MM. It counts as cell-based. To be noted: 120 h; Prostate cell line PC3MM; 5 days compound incubation; 1500 cells/well. The protocol:
as §1, §2
(§5) Analysis of data was done by subtracting the background luminescence value from each data point, then determining the percent inhibition of total growth (as determined by the values for DMSO-treated wells). […]

The target of a further assay is T1, b-Raf(V600E) (Homo sapiens, UniProt P15056, V600E).
T1 construct: made in house
The assay is described as follows: Raf/Mek Amplified Luminescence Proximity Homogeneous Assay (Alpha Screen), b-Raf(V600E). It counts as biochemical. The settings on record: mutant b-Raf(V600E), read-out: mut-b-RAF (IC50 in uM). In outline: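 IC50 derived by non-linear regression from AlphaScreen luminescence of phospho-MEK (anti-p-MEK antibody). Reaction: ~4 pM b-Raf(V600E), ~10 nM kinase-dead biotinylated Mek, 60 min compound pre-incubation, then 3 h with ATP at room temperature in pH 7.5 Tris/MgCl2/DTT buffer, quenched with EDTA.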

For the next assay, the system named is A375 cells. The experiment in a line: Cell Titer-Glo cell viability assay, A375. Type of assay: cell-based. The settings on record: Homo sapiens, A-375, 72 h; Melanoma cell line A375; 3 days compound incubation; 1000 cells/well. Here is the method:
as §1, §2, §3, §4

The test system of another assay is G361 cells. The assay is described as follows: Cell Titer-Glo cell viability assay, G361. It counts as cell-based. The settings on record: Homo sapiens, G-361, 96 h; Melanoma cell line G361; 4 days compound incubation; 1000 cells/well. The protocol: as §1, §2, §3, §4
The subject of the next assay is Malme3M cells. The experiment in a line: Cell Titer-Glo cell viability assay, Malme3M. The settings on record: Homo sapiens, Malme-3M, 120 h; Melanoma cell line Malme3M; 5 days compound incubation; 1000 cells/well. Type of assay: cell-based. Here is the method: as §1, §2, §3, §4
Another assay relates to K1 cells. The assay is described as follows: Cell Titer-Glo cell viability assay, K1. Type of assay: cell-based. To be noted: 96 h; Papillary thyroid cell line K1; 4 days compound incubation; 1500 cells/well. Here is the method: as §1, §2, §5

Five molecules from US20100003246A1, “Novel heterocyclic compounds and uses therof” (priority 2008, published 2010) can be followed below.

T1 sequence (P15056 whole entry V600E): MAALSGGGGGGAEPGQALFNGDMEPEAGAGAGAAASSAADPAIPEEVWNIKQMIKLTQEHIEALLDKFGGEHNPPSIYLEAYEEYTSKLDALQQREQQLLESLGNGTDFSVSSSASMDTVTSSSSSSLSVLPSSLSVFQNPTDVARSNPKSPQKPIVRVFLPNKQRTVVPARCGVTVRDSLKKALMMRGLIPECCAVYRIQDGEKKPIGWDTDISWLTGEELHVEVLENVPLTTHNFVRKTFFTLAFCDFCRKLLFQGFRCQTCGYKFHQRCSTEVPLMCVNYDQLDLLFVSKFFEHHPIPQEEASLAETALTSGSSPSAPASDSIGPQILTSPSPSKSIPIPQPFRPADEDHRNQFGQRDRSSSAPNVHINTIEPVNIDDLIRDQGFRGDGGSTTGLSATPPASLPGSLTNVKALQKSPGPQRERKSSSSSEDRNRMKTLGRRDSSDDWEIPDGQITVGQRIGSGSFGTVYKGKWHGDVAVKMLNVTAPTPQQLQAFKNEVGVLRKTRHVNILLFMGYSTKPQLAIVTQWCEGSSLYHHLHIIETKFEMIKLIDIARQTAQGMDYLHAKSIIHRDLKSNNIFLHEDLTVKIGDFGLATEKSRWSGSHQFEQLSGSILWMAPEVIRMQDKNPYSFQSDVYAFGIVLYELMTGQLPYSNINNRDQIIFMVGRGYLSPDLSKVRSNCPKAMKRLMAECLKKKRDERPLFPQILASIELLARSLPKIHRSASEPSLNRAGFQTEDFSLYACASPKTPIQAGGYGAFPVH

In the case of `COCC(=O)N[C@@H](C)CNc1nccc(-c2[nH]c(-c3ccc(F)cc3)nc2-c2cnc(N)c(OC)c2)n1` [Compound 163, (S)-N-(1-(4-(4-(6-amino-5-methoxypyridin-3-yl)-2-(4-fluorophenyl)-1H-imidazol-5-yl)pyrimidin-2-ylamino)propan-2-yl)-2-methoxyacetamide], the EC50 with Capan1 cells was 535 nM; in the assay on SU86.86 cells, 28 nM; with PC3MM cells it was 83 nM. For the same molecule, the IC50 at b-Raf(V600E) worked out at 0.0001 µM.
`COc1cc(-c2[nH]c(-c3ccccc3)nc2-c2ccncc2)cnc1N` [Compound 1, 3-methoxy-5-(2-phenyl-4-(pyridin-4-yl)-1H-imidazol-5-yl)pyridin-2-amine]: the EC50 in the assay on A375 cells turned out to be 376 nM; in the assay on G361 cells, 70 nM; in the assay with Malme3M cells it was 429 nM; with Capan1 cells, 570 nM; in the assay on SU86.86 cells it was 116 nM.
Turning to `COCC(=O)N[C@@H](C)CNc1nccc(-c2[nH]c(-c3ccc(C(F)(F)F)cc3)nc2-c2cnc(N)c(OC)c2)n1` [Compound 198, (S)-N-(1-(4-(4-(6-amino-5-methoxypyridin-3-yl)-2-(4-(trifluoromethyl)phenyl)-1H-imidazol-5-yl)pyrimidin-2-ylamino)propan-2-yl)-2-methoxyacetamide], it took 787 nM to reach a half-maximal effect in the assay on K1 cells (EC50). Further, the IC50 on b-Raf(V600E) was determined as 0.0003 µM.
In the case of `COCC(=O)N[C@@H](C)CNc1nccc(-c2[nH]c(-c3ccc(F)cc3)nc2-c2cnc(N)c(OC)n2)n1` [Compound 5, (S)-N-(1-(4-(4-(5-amino-6-methoxypyrazin-2-yl)-2-(4-fluorophenyl)-1H-imidazol-5-yl)pyrimidin-2-ylamino)propan-2-yl)-2-methoxyacetamide], the EC50 came out at 354 nM in the assay with SU86.86 cells and 892 nM with K1 cells.
With `COc1cc(Nc2nccc(-c3[nH]c(C(C)(C)C)nc3-c3cnc(N)c(OC)n3)n2)ccn1` [Compound 9, 4-(4-(5-amino-6-methoxypyrazin-2-yl)-2-tert-butyl-1H-imidazol-5-yl)-N-(2-methoxypyridin-4-yl)pyrimidin-2-amine], the midpoint of the response in the assay with PC3MM cells, the EC50, lay at 250 nM.

In general, EC50 refers to the concentration giving half of the maximal effect. Lower therefore signals higher potency in that assay. The term IC50 denotes the concentration that gives 50% inhibition.
